Among the data in PubChem BioAssay AID1645863 (Buhrlage Lab, Dana-Farber Cancer Institute and Novartis …, 2021) are IC50 values, retold here.

Active and inactive are the calls of the source. No rule for the calls is given here.

Sequence of Ubiquitin carboxyl-terminal hydrolase 10 (Homo sapiens) (Q14694 whole entry, looked up): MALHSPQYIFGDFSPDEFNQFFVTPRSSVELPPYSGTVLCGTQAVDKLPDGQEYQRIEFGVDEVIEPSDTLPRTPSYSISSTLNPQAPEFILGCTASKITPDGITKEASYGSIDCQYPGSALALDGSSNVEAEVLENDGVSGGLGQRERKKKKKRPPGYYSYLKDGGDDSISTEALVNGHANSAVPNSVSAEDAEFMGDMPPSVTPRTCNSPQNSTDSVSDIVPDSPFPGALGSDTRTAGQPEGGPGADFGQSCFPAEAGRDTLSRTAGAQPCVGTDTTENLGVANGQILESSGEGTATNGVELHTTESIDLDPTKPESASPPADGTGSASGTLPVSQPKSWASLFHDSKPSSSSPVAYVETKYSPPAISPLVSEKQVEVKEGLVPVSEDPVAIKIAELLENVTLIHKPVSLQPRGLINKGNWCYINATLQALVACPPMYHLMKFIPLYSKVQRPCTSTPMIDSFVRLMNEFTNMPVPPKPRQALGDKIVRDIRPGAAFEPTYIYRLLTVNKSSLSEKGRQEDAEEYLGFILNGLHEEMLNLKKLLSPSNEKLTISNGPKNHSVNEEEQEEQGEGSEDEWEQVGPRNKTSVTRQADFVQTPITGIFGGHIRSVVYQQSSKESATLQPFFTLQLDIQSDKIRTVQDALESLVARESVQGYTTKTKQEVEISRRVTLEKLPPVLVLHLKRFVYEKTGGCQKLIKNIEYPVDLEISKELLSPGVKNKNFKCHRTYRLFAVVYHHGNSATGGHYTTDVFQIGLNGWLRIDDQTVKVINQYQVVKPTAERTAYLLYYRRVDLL

This experiment has as its target Ubiquitin carboxyl-terminal hydrolase 10 (Homo sapiens) (UniProt Q14694). The experiment is described as follows: primary hit verification, biochemical, ubiquitin-specific protease 10 deubiquitylase inhibitors, concentration-effect titration (AID 1645863).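 Also: potency values describe inhibition of USP10 cleavage of a fluorogenic ubiquitin substrate.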 The conditions noted are these: USP10 deubiquitinase enzymatic assay.
In the case of `O=C(Cn1c(=O)c2ccccc2n(CC(=O)Nc2cccc(F)c2)c1=O)NCCc1ccccc1`, the IC50 is 27.4 µM.

With `Cc1ccc(-n2nc(C(=O)Nc3ccc(C)cn3)c3ncn(C)c(=O)c32)cc1`, the IC50 is > 40 µM (inactive).

Take `O=C1CSC(c2ccc3c(c2)OCO3)c2c(n(C3CCCCCC3)[nH]c2=O)N1` (centres undefined): the IC50 is 36.8 µM.

Consider `O=C(NCCc1cccnc1)c1ccn(-c2ccc3ccccn23)n1`, for which the IC50 is > 40 µM (inactive).

On to `Cc1ccc2c(c1)c(=O)c(C(=O)c1ccccc1)cn2CC(=O)Nc1ccc2c(c1)OCCO2`, for which the IC50 was > 40 µM (inactive).

Consider `COc1ccc(-c2cc(C(=O)Nc3ccnn3Cc3ccccc3)no2)cc1`, for which the IC50 is > 40 µM (inactive).

Consider `CNC(=O)c1cc2nc(N(C)C)n(-c3ccc(F)cc3)c2s1`, for which the IC50 is > 40 µM (inactive).

As for `O=c1c2cc(Br)ccc2[nH]c(=S)n1Cc1cccnc1`, the IC50 was > 40 µM (inactive).

On to `Nc1ccc2oc(-c3cccc(-c4nc5cc(N)ccc5o4)n3)nc2c1`, for which the IC50 was 26.6 µM.

With `CCCC(O)CCCCCCCc1cc(O)cc(O)c1C(=O)OC(CCC)CCCCCCCc1cc(O)cc(O)c1` (centres undefined), the IC50 is 21.8 µM.

In the case of `Cc1nn(-c2ccccc2)c2c1nc(CCC(=O)NC1CCCCC1)c(=O)n2C`, the IC50 is > 40 µM (inactive).

For the compound `O=c1c2ccccc2nc(CSc2cccc(Cl)c2Cl)n1-c1ccccc1`, the IC50 is > 40 µM (inactive).

As for `COc1cc(O)c2c(O)c3c(cc2c1)C[C@@]1(O)CC(=O)C(C(N)=O)=C(O)[C@@]1(O)C3=O`, the half-maximal inhibitory concentration (IC50) was 7.47 µM.

`COCCCN1CCS(=O)(=O)c2c(Cl)c(F)nc(Oc3ccc(C#N)cc3)c21`: the IC50 is > 40 µM (inactive).

As to `Cc1ccc(NC(=O)CSc2ccc(NC(=O)c3ccc(C(=O)O)cc3C(=O)O)cc2)c(C)c1`, the IC50 was > 40 µM (inactive).

`O=C(c1ccco1)N1CCC2(CC1)CC1(CO2)Nc2ccccc2-n2cccc21` (centres undefined): the IC50 is > 40 µM (inactive).

As to `Cc1ccc(C(=O)Nc2ccc3c(c2)Sc2ncccc2C(=O)N3C(C)C)cc1C`, the IC50 is > 40 µM (inactive).

As for `Cn1c(=O)c2ncnnc2n(C)c1=O`, the IC50 was 3.09 µM.

Turning to `Cc1cc(NC(=O)c2cc(-c3cccnc3)n[nH]2)ccc1Br`, the IC50 was 28.6 µM.

For the compound `O=C(O)c1nccnc1C(=O)N1CCc2ccccc2C1`, the IC50 is > 40 µM (inactive).

Regarding `O=C(Cn1c(=O)n(Cc2ccc3c(c2)OCO3)c(=O)c2ccccc21)NCc1ccco1`, the 50% inhibitory concentration (IC50) was 30.5 µM.

Consider `O=C(c1cnc2[nH][nH]c(=O)c2c1)c1cc(Cl)cc(Cl)c1O`, for which the IC50 is 5.78 µM.

As for `Cc1ccc2nc(CNc3ccc(F)cc3C)cc(=O)n2c1`, the IC50 was > 40 µM (inactive).

On to `Cc1ncc(CO)c2c1Oc1nc(-c3cccc(Cl)c3)nc(SCC(=O)N3CCCCC3)c1C2`, for which the IC50 is > 40 µM (inactive).

Take `FC(F)(F)c1ccc(Nc2nnnc3ccccc23)cc1`: the half-inhibitory concentration (IC50) is 16.6 µM.

On to `O=C(COc1ccc(Cl)cc1)Nc1noc(-c2cccs2)n1`, for which the IC50 was > 40 µM (inactive).

Take `CC(NC(=O)c1ccccc1)c1nc2ccccc2n1CC(=O)Nc1ccc(C#N)cc1` (centres undefined): the IC50 was 13.2 µM.

With `O=C(CCCn1c(=O)c2ccccc2n(CC(=O)NCc2ccccc2Cl)c1=O)NCc1ccc2c(c1)OCO2`, the IC50 is 8.88 µM.

For `O=C(Cn1c(=O)c2sccc2n(Cc2ccc([N+](=O)[O-])cc2)c1=O)NCCc1ccccc1`, the IC50 is > 40 µM (inactive).

Take `Cc1cccc(C(=O)Nc2cccc(SC(C(=O)Nc3ccc(Cl)c(C(=O)O)c3)c3ccccc3)c2)c1` (centres undefined): the IC50 was 7.42 µM.

`O=C(CCCc1nnc2c(=O)n(-c3cccc(F)c3)ccn12)NCc1ccc(Cl)cc1`: the IC50 was 18.2 µM.

As to `COc1ccc(S(=O)(=O)N2CCc3ccccc32)cc1C(=O)Nc1ccc2[nH]c(=O)[nH]c2c1`, the IC50 was 24.2 µM.

As to `Oc1cccc2nc3c(O)cccc3nc12`, the IC50 is 11.3 µM.

For `C/C=C/C=C/[C@@H]1Cc2cc(O)cc(O)c2O1`, the IC50 is 35.6 µM.

For the compound `COc1ccc(-c2cc3c(=O)n(CC(=O)Nc4ccccc4C)ccn3n2)cc1`, the IC50 was > 40 µM (inactive).

For `COc1ccc(-n2ccn3c(CCC(=O)Nc4cccc(C)c4)nnc3c2=O)cc1`, the IC50 is > 40 µM (inactive).

As for `Cc1cc(Cl)ccc1NC(=O)c1cc(-c2cccnc2)n[nH]1`, the IC50 is > 40 µM (inactive).

Turning to `Cc1ccc(NC(=O)COc2ccccc2/C=C2/NC(=O)N(Cc3ccc(F)cc3)C2=O)cc1`, the IC50 is > 40 µM (inactive).

For `CCOc1cc2c(cc1OCC)C(c1cc3c(cc1Br)OCO3)NCC2` (centres undefined), the IC50 was > 40 µM (inactive).

`COc1ccc(COc2ccc3c(C)c(CC(=O)N4CC[C@@]5(O)CCCC[C@H]5C4)c(=O)oc3c2)cc1`: the IC50 is > 40 µM (inactive).

For the compound `Cc1ccc(Cn2cc(-c3noc(C(=O)Nc4cc(F)ccc4F)n3)nn2)cc1`, the 50% inhibitory concentration (IC50) is 26.8 µM.

`O=C(CNS(=O)(=O)c1ccc(F)cc1)N1CCCC(c2nnc3ccccn23)C1` (centres undefined): the IC50 is > 40 µM (inactive).

As to `O=C(CSc1oc(-c2ccc(F)cc2)nc1S(=O)(=O)c1ccc(F)cc1)Nc1ccc(F)cc1`, the IC50 was 34.7 µM.

For the compound `O=C(Cn1c(=O)[nH]c2c(-c3ccccc3)c[nH]c2c1=O)NCc1ccccc1Cl`, the IC50 is > 40 µM (inactive).

As to `Cc1nnc(NC(=O)C2CCN(c3ccc(S(N)(=O)=O)cc3[N+](=O)[O-])CC2)o1`, the IC50 was 12.6 µM.

In the case of `Cc1nn(-c2ccccc2)c2c1N=C1C(Cl)=CC(Cl)=CN1C21C(=O)Nc2ccccc21` (centres undefined), the IC50 is > 40 µM (inactive).

As to `Cc1ccc(S(=O)(=O)Nc2ccccc2C(=O)Nc2nc3ccc(Br)cc3s2)cc1`, the IC50 is > 40 µM (inactive).

On to `Cc1c(C(=O)Nc2ccc(Oc3ccccc3)cc2)nnn1-c1cccc(Cl)c1`, for which the IC50 is > 40 µM (inactive).

For `COc1cc(CC(=O)Nc2ccccc2N2CCOCC2)cc(OC)c1OC`, the IC50 is > 40 µM (inactive).

For `O=C1CC(C(=O)Nc2ccc3c(c2)OCO3)n2nc(SCc3ccccc3)nc2N1` (centres undefined), the IC50 is > 40 µM (inactive).

Regarding `Cc1ccccc1NC(=O)Cn1c(=O)n(-c2ccc(CC(=O)NCCc3ccccc3)cc2)c(=O)c2sccc21`, the IC50 is 12.8 µM.

Regarding `c1ccc2sc(-c3csc(-c4ccc5c(c4)OCCO5)n3)nc2c1`, the IC50 is > 40 µM (inactive).

For `Cc1ccc([N+](=O)[O-])cc1S(=O)(=O)Nc1cc2sc(=O)oc2c2ccccc12`, the IC50 is > 40 µM (inactive).

As to `O=C(Nc1ccccc1Cc1ccccc1)c1nc2n(n1)-c1ccccc1S(=O)(=O)N2`, the IC50 was 25.3 µM.

For the compound `Cc1ccc(C(=O)O)cc1NC(=O)C(Sc1cccc(NC(=O)c2ccccc2C)c1)c1ccccc1` (centres undefined), the IC50 was > 40 µM (inactive).

As for `N#Cc1cccc(NC(=O)Nc2cccn(Cc3ccc(F)cc3)c2=O)c1`, the IC50 is > 40 µM (inactive).

Consider `CCN(Cc1ccccc1)C(=O)C1CCN(Cc2ccc(OC)c(OC)c2OC)CC1`, for which the IC50 is > 40 µM (inactive).

As for `Cc1ccc(Cl)cc1NC(=O)Cn1c(=O)n(CCC(=O)NCc2ccco2)c(=O)c2ccccc21`, the IC50 is 13.1 µM.

In the case of `COc1cccc(-n2cnc3cc(C(=O)NCCc4ccccc4)ccc3c2=O)c1`, the IC50 is 19.8 µM.

Turning to `CC1(C)Cc2c(c(-c3ccco3)nc3sc4c(SCCCc5ccccc5)ncnc4c23)CO1`, the IC50 was 29.1 µM.

As to `O=C(Nc1cccc([N+](=O)[O-])c1)Nc1ccc2snnc2c1`, the IC50 is > 40 µM (inactive).

Turning to `COc1ccc(NS(=O)(=O)c2cc(NC(=O)CC(=O)c3ccc([N+](=O)[O-])cc3)ccc2C)cc1`, the IC50 was > 40 µM (inactive).

Take `Nc1ncnc2c1ncn2[C@@H]1O[C@H](CO)C[C@@H]1O`: the IC50 was 24.9 µM.

For `O=C(O)c1ccccc1C(=O)Nc1ccc(SC(C(=O)Nc2cccc(Cl)c2)c2ccccc2)cc1` (centres undefined), the IC50 is 14.2 µM.

For `CC(=O)c1ccc(N2CCN(S(=O)(=O)c3cc4c(cc3C)NC(=O)CO4)CC2)cc1`, the IC50 is > 40 µM (inactive).

Regarding `Cc1ccc(-n2cc(-c3noc(C(=O)Nc4ccc(F)cc4C)n3)nn2)cc1`, the IC50 was 10.1 µM.

With `Cc1cccc(C)c1NC(=O)COc1ccccc1-c1nnc(-c2ccccc2)o1`, the IC50 was > 40 µM (inactive).

`O=C(Cn1cnc(-c2noc(-c3ccc(F)cc3)n2)c1)Nc1ccccc1F`: the IC50 was > 40 µM (inactive).

`CCOc1ncccc1C(=O)Nc1ccnn1Cc1ccccc1`: the IC50 is > 40 µM (inactive).

As for `CSc1nc2ncn(CC(=O)Nc3ccc(Br)cc3)c(=O)c2s1`, the IC50 was > 40 µM (inactive).

`O=C(COc1ccc(N2CC(C(=O)NCc3ccc4c(c3)OCO4)CC2=O)cc1)Nc1ccc(F)cc1` (centres undefined): the IC50 was 20.8 µM.

For `CSCCC(NC(=O)c1ccccc1)c1nc2ccccc2n1CC(=O)Nc1ccccc1` (centres undefined), the IC50 is 35.9 µM.

With `Cc1nc2c(c(C)c1CCC(=O)Nc1ccccc1F)c(=O)n(C)c(=O)n2C`, the IC50 is > 40 µM (inactive).

As to `O=C(Cn1c(=O)[nH]c2ccccc2c1=O)NCc1ccccc1Cl`, the IC50 is > 40 µM (inactive).

Take `O=C(Cn1c(=O)n(CCC(=O)N2CCc3ccccc3C2)c(=O)c2ccccc21)NCc1ccccc1Cl`: the IC50 was > 40 µM (inactive).

For `CCOCc1ccc(C(=O)N[C@H](C)c2nc3cc(-c4ccc(OC)cc4)ncn3n2)cc1`, the IC50 is > 40 µM (inactive).

For the compound `O=C(COc1nc2ccccc2nc1N1CCOCC1)NC(c1ccccc1)c1ccccc1`, the IC50 is > 40 µM (inactive).

Turning to `COc1ccc(Cn2c(=O)[nH]c3cc(C(=O)NCCCN4CCN(c5cccc(Cl)c5)CC4)ccc3c2=O)cc1`, the IC50 was > 40 µM (inactive).

`COc1ccccc1Nc1ncc(C(=O)NCCc2ccc(Cl)cc2)c2ccccc12`: the IC50 is > 40 µM (inactive).

Turning to `Cc1noc(C)c1COc1cccc(C(=O)Nc2cc(Cl)ccc2-n2cncn2)c1`, the IC50 is > 40 µM (inactive).

Regarding `O=C(Nc1ccc(NC(=O)c2ccccc2O)cc1)Nc1ccc(OCc2ccccc2)cc1`, the IC50 was > 40 µM (inactive).

On to `Cc1c(-c2nn3c(-c4ccco4)nnc3s2)cccc1[N+](=O)[O-]`, for which the IC50 is > 40 µM (inactive).

As for `Cc1noc(-c2ccnc(-n3cnc(C(=O)NCC4CC4)c3)c2)n1`, the IC50 is > 40 µM (inactive).

As to `Cc1cccc(NC(=O)Nc2ccccc2OCc2cc(=O)n3cccc(C)c3n2)c1`, the IC50 was 27.1 µM.
